Laboratory results published in paper PMC10313368 (The Journal of Clinical Investigation, 2023).
Where “and” joins values, the source holds several entries; their conditions need not be identical. Equal values may be shown once.

How the values were obtained:
[1] = test system: HUVECs; assay: mRNA angiogenesis array (TaqMan Array qPCR) in HUVECs; assay type: cell-based, human; set-up: ANG,RNASE4, array raw value (Figure 8B, well A10) / GAPDH, array raw value (Figure 8B, well A2) / EDIL3, array raw value (Figure 8B, well B2) / FGF1, array raw value (Figure 8B, well B4) / TIMP2, array raw value (Figure 8B, well E10) / SEMA3F, array raw value (Figure 8B, well E6) / CEACAM1, array raw value (Figure 8B, well F2) / LYVE1, array raw value (Figure 8B, well F6): scale not given here
Procedure: Angiogenesis array. Total RNA was isolated from MIO-MI cells (8 hours) and HUVECs (16 […]
cDNA was prepared with QuantiTect® Reverse Transcription Kit (Qiagen, Cat# 205311). RT-qPCR assay was performed with pre-configured TaqMan Array 96-Well FAST Plate for human angiogenic gene expression (Applied Biosystems, Inc) following the manufacture’s protocol. Each plate contains pre-defined genes including 18S, GAPDH and HPRT1 endogenous controls.
TaqMan Array plates were prepared by loading on each well 5 μl of cDNA sample (30 ng) with nuclease-free water and 5 μl of TaqMan™ Fast Advanced Master Mix (Applied Biosystem, Cat# […]
4444554). The reaction was performed using the QuantStudio™ 3 Flex Real‐Time PCR System as follows: 2 minutes at 50°C (stage 1); 10 minutes at 95°C (stage 2); 15 seconds at 95°C and 1 minutes at 60°C for 40 cycles (stage 3). The data were analyzed by using HPRT1 as endogenous […]
The clustering heatmaps were produced with “pheatmap” library in R with scale = row and clustering method = complete.
HUVEC cells, Euclidean distance was used to quantify the difference in qPCR screening. The Euclidean distance was calculated using “dist” function from R’s default stat library that measures the distance between 2 vectors (i.e., total qPCR expression values in control and treatment). In […]

[2] = test system: hiPSC-derived 3D retinal organoids; assay: qPCR of VEGF and ANGPTL4 mRNA in D120 hiPSC-derived retinal organoids in 1% O2; assay type: cell-based, human; conditions: for Vegfa mRNA / Angptl4 mRNA: 12 hours, 20% O2 about 1, replicates; for Vegfa mRNA: Figure 9F; for Angptl4 mRNA: Figure 9G
Procedure: An hiPSC line derived from CD34^+ cord blood was used in this study (A18945, Thermo Fisher Scientific) ([70]). Undifferentiated hiPSCs and derived retinal organoids were routinely tested for mycoplasma contamination by PCR. Cell culture, retinal differentiation, and organoid formation were conducted as previously described ([71]). Retinal organoids at D120 were used for experiments. […]
Reverse transcription and quantitative real-time PCR. Total RNA was isolated from cultured cells or retinas with PureLinkTM RNA Mini Kit (Invitrogen #12183025), and cDNA was prepared with MuLV Reverse Transcriptase (Applied Biosystems). Quantitative real-time PCR was performed with Power SYBR Green PCR Master Mix (Applied Biosystems) and MyiQ Real-Time PCR Detection System (Bio-Rad). Normalization was done using cyclophilin A for mouse tissue and human cell lines. Primers are listed in Supplemental Table 2. […]

[3] = biological target: HIF-2α (Homo sapiens, UniProt Q99814); assay: Immunoblot of HIF-2α accumulation in D120 hiPSC-derived retinal organoids in 1% O2; assay type: cell-based; set-up: endogenous in cells; conditions: 1% O2 12 hours, 32-134D
Procedure: An hiPSC line derived from CD34^+ cord blood was used in this study (A18945, Thermo Fisher Scientific) ([70]). Undifferentiated hiPSCs and derived retinal organoids were routinely tested for mycoplasma contamination by PCR. Cell culture, retinal differentiation, and organoid formation were conducted as previously described ([71]). Retinal organoids at D120 were used for experiments.
Immunoblot assays. Cells, neurosensory retina, and D120 retinal organoid lysates were subjected
to 4–15% gradient SDS/PAGE (Invitrogen). Immunoblot (Western blot or WB) assays were
performed as previously described (1). […]

HIF-2α, sequence (Q99814 whole entry): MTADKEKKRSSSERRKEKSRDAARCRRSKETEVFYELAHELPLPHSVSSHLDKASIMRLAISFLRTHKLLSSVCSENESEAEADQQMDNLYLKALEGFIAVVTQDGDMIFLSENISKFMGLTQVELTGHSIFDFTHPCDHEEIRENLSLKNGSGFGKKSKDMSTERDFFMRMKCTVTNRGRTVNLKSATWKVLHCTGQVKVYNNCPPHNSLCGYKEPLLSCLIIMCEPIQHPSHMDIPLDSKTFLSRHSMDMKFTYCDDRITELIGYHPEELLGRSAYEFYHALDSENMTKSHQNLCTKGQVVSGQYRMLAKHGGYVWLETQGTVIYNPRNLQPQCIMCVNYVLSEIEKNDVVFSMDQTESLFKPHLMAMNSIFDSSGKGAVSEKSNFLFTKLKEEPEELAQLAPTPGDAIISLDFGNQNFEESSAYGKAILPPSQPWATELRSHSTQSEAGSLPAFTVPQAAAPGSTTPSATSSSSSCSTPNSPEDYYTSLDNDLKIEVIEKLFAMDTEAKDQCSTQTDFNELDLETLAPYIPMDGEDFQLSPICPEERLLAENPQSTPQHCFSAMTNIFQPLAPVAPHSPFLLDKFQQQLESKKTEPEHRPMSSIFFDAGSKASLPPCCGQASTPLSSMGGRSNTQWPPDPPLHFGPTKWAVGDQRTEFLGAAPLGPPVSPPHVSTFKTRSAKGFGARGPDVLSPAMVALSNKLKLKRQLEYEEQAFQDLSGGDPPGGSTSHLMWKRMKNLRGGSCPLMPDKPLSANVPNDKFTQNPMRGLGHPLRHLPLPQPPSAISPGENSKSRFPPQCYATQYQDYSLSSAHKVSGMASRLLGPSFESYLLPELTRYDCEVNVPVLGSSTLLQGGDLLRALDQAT

Structure (SMILES): Brc1ccc2c(-c3csc(-c4c[nH]c5c(Br)cccc45)n3)c[nH]c2c1 [32-134D, 4-(6-bromo-1H-indol-3-yl)-2-(7-bromo-1H-indol-3-yl)thiazole]
- PECAM1, array raw value (Figure 8B, well F5) ([1]; HUVEC, 1%O2+32-134D): 23.24
- PF4, array raw value (Figure 8B, well D8) ([1]; HUVEC, 1%O2+32-134D): 38.4479
- PLG, array raw value (Figure 8B, well A6) ([1]; HUVEC, 1%O2+32-134D): 36.8052
- PROX1, array raw value (Figure 8B, well H12) ([1]; HUVEC, 1%O2+32-134D): 31.6234
- PTN, array raw value (Figure 8B, well C2) ([1]; HUVEC, 1%O2+32-134D): 36.9532
- S1PR1, array raw value (Figure 8B, well H11) ([1]; HUVEC, 1%O2+32-134D): 25.2945
- SEMA3F, array raw value (Figure 8B, well E6) ([1]; HUVEC, 1%O2+32-134D): 31.8531
- SERPINB5, array raw value (Figure 8B, well E4) ([1]; HUVEC, 1%O2+32-134D): 36.9759
- SERPINC1, array raw value (Figure 8B, well A7) ([1]; HUVEC, 1%O2+32-134D): 34.8884
- SERPINF1, array raw value (Figure 8B, well D7) ([1]; HUVEC, 1%O2+32-134D): 37.5691
- TEK, array raw value (Figure 8B, well E7) ([1]; HUVEC, 1%O2+32-134D): 27.2772
- TGFA, array raw value (Figure 8B, well C4) ([1]; HUVEC, 1%O2+32-134D): 29.7382
- TGFB1, array raw value (Figure 8B, well C5) ([1]; HUVEC, 1%O2+32-134D): 24.01
- THBS1, array raw value (Figure 8B, well C12) ([1]; HUVEC, 1%O2+32-134D): 23.1291
- TIE1, array raw value (Figure 8B, well E8) ([1]; HUVEC, 1%O2+32-134D): 30.7653
- TIMP2, array raw value (Figure 8B, well E10) ([1]; HUVEC, 1%O2+32-134D): 25.4299
- TIMP3, array raw value (Figure 8B, well E11) ([1]; HUVEC, 1%O2+32-134D): 25.8838
- TNFSF15, array raw value (Figure 8B, well D1) ([1]; HUVEC, 1%O2+32-134D): 25.7168
- TNMD, array raw value (Figure 8B, well E9) ([1]; HUVEC, 1%O2+32-134D): 37.1045
- TYMP, array raw value (Figure 8B, well B12) ([1]; HUVEC, 1%O2+32-134D): 39.1978
- VASH1, array raw value (Figure 8B, well D9) ([1]; HUVEC, 1%O2+32-134D): 30.8647
- VEGFA, array raw value (Figure 8B, well C7) ([1]; HUVEC, 1%O2+32-134D): 30.4927
- VEGFB, array raw value (Figure 8B, well C8) ([1]; HUVEC, 1%O2+32-134D): 27.5522
- VEGFC, array raw value (Figure 8B, well C9) ([1]; HUVEC, 1%O2+32-134D): 27.3225
- ANGPTL4 mRNA (angiogenesis array, Figure 8C) ([1]; HUVEC, Hy+32-134D, Normal = 1): 35.2355
- COL4A1 mRNA (angiogenesis array, Figure 8C) ([1]; HUVEC, Hy+32-134D, Normal = 1): 3.543
- COL4A2 mRNA (angiogenesis array, Figure 8C) ([1]; HUVEC, Hy+32-134D, Normal = 1): 2.168
- CTGF mRNA (angiogenesis array, Figure 8C) ([1]; HUVEC, Hy+32-134D, Normal = 1): 3.12
- EPHB2 mRNA (angiogenesis array, Figure 8C) ([1]; HUVEC, Hy+32-134D, Normal = 1): 2.119
- HSPG2 mRNA (angiogenesis array, Figure 8C) ([1]; HUVEC, Hy+32-134D, Normal = 1): 1.339
- ITGB3 mRNA (angiogenesis array, Figure 8C) ([1]; HUVEC, Hy+32-134D, Normal = 1): 3.6621
- MMP2 mRNA (angiogenesis array, Figure 8C) ([1]; HUVEC, Hy+32-134D, Normal = 1): 3.052
- PDGFB mRNA (angiogenesis array, Figure 8C) ([1]; HUVEC, Hy+32-134D, Normal = 1): 2.63
- PROX1 mRNA (angiogenesis array, Figure 8C) ([1]; HUVEC, Hy+32-134D, Normal = 1): 2.021
- TGFA mRNA (angiogenesis array, Figure 8C) ([1]; HUVEC, Hy+32-134D, Normal = 1): 2.2277
- TGFB1 mRNA (angiogenesis array, Figure 8C) ([1]; HUVEC, Hy+32-134D, Normal = 1): 1.578
- TNMD mRNA (angiogenesis array, Figure 8C) ([1]; HUVEC, Hy+32-134D, Normal = 1): 1.388
- VEGFA mRNA (angiogenesis array, Figure 8C) ([1]; HUVEC, Hy+32-134D, Normal = 1): 4.067
- VEGFC mRNA (angiogenesis array, Figure 8C) ([1]; HUVEC, Hy+32-134D, Normal = 1): 3.879
- reduction in the Euclidean distance between control and hypoxic cell angiogenic gene expression ([1]; HUVECs, from 209 to 35): 83%
- expression of HIF-regulated vasoactive mediators (in words) ([2]; 1% O2 12 hours, 32-134D): effectively prevented
- Vegfa mRNA ([2]; 1% O2+32-134D 1μM): 2.046 and 2.085 and 1.848
- Angptl4 mRNA ([2]; 1% O2+32-134D 1μM): 5.344 and 5.73 and 5.861
- Vegfa mRNA ([2]; 1% O2+32-134D 10μM): 0.2069 and 0.1725 and 0.1726
- Angptl4 mRNA ([2]; 1% O2+32-134D 10μM): 0.1373 and 0.1287 and 0.1338
- accumulation of HIF-2α protein [3]: effectively prevented accumulation
